Laboratory results reported in patent US20150197492A1, “NOVEL INDENO[1,2-c]QUINOLIN-11-ONE DERIVATIVES, PREPARATION METHOD AND APPLICATION THEREOF” (National Defense Medical Center, priority 2014, published 2015).

Assays:
Type in all cases: cell-based
human PC-3 cells = assay: Sulforhodamine B (SRB) assay, cytotoxicity against PC-3 cells; settings: SRB assay, PC-3 cells
Method in brief: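 PC-3 cells in 5% FBS were fixed with 10% TCA after 24 h as T0, then treated with compound for 48 h, fixed, stained with 0.4% SRB in 1% acetic acid and solubilized in 10 mmol/L Trizma base. Absorbance was read at 515 nm. GI% = 100−[(Tx−T0)/(C−T0)]×100, and IC50 is the concentration halving total protein.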

[1] = system: 55 to 60 cancer cell lines; settings: 10 μM
K-562 = assay: cells
MOLT-4 = assay: cells
RPMI-8226 = assay: cells
NCI-H226 = assay: cells
HCT-15 = assay: cells
HT29 = assay: cells
KM12 = assay: cells
SW-620 = assay: cells
SNB-19 = assay: cells
SNB-75 = assay: cells
U251 = assay: cells; settings: CNS Cancer U251
MALME-3M = assay: cells
MDA-MB-435 = assay: cells
SK-MEL-28 = assay: cells; settings: Homo sapiens, Melanoma SK-MEL-28
[2] = Homo sapiens, K562, Leukemia K-562
[3] = Homo sapiens, Colon Cancer SW-620
[4] = Homo sapiens, Melanoma MALME-3M

SMILES: CCN(CC)CCNc1nc2ccccc2c2c1-c1ccc(Cl)cc1C2=O [SJ-3, 6-(2-(Diethylamino)ethylamino)-9-chloro-11H-indeno[1,2-c]quinolin-11-one]
- Toxicity (%) (human PC-3 cells): 55.6%
- GI % (10 μM) (human PC-3 cells; 10 μM): 100%
- Mean (mean growth percentage of the tested cancer cell lines) ([1]; 48 hours, all tested cell lines): 62.4%
- cytotoxicity in the first stage (in words) ([1]; basis for selection for the five-dose test): potential cytotoxicity
- GI50 (K-562; [2]): 8.75 µM
- LC50 (lethal concentration, 50% cell kill) (K-562; [2]): 7.46 µM
- growth percentage (K-562; K-562 (Leukemia), 10 μM, 48 hours): 45.29%
- TGI (K-562; Leukemia K-562): 3.61 µM
- GI50 (MOLT-4; Homo sapiens, Leukemia MOLT-4): 6.24 µM
- LC50 (concentration killing 50% of cells) (MOLT-4; Homo sapiens, Leukemia MOLT-4): 7.91 µM
- TGI (MOLT-4; Leukemia MOLT-4): 3.43 µM
- growth percentage (MOLT-4; MOLT-4 (Leukemia), 10 μM, 48 hours): 34.63%
- GI50 (RPMI-8226; Homo sapiens, Leukemia RPMI-8226): 20.2 µM
- CC50 (RPMI-8226; Homo sapiens, Leukemia RPMI-8226, read-out: LC50 (the source's name)): 9.73 µM
- TGI (RPMI-8226; Leukemia RPMI-8226): 4.31 µM
- growth percentage (RPMI-8226; RPMI-8226 (Leukemia), 10 μM, 48 hours): 81.94%
- GI50 (NCI-H226; Homo sapiens, Non-Small Cell Lung Cancer NCI-H226): 1.88 µM
- growth percentage (NCI-H226; NCI-H226 (Non-Small Cell Lung Cancer), 10 μM, 48 hours): 80.86%
- TGI (HCT-15; Colon Cancer HCT-15): 3.51 µM
- growth percentage (HCT-15; HCT-15 (Colon Cancer), 10 μM, 48 hours): 50.38%
- GI50 (HCT-15; Homo sapiens, Colon Cancer HCT-15): 4.37 µM
- CC50 (HCT-15; Homo sapiens, Colon Cancer HCT-15, read-out: LC50 (the source's name)): 7.5 µM
- TGI (HT29; Colon Cancer HT29): 3.16 µM
- growth percentage (HT29; HT29 (Colon Cancer), 10 μM, 48 hours): 9.75%
- GI50 (HT29; Homo sapiens, HT-29, Colon Cancer HT29): 4.23 µM
- CC50 (HT29; Homo sapiens, HT-29, Colon Cancer HT29, read-out: LC50 (the source's name)): 6.28 µM
- TGI (KM12; Colon Cancer KM12): 3.11 µM
- GI50 (KM12; Homo sapiens, Colon Cancer KM12): 6.48 µM
- CC50 (KM12; Homo sapiens, Colon Cancer KM12, read-out: LC50 (the source's name)): 5.96 µM
- growth percentage (KM12; KM12 (Colon Cancer), 10 μM, 48 hours): 53.42%
- TGI (SW-620; Colon Cancer SW-620): 3.06 µM
- GI50 (SW-620; [3]): 5.12 µM
- LC50 (concentration killing 50% of cells) (SW-620; [3]): 6.67 µM
- growth percentage (SW-620; SW-620 (Colon Cancer), 10 μM, 48 hours): 43.72%
- TGI (SNB-19; CNS Cancer SNB-19): 3.42 µM
- GI50 (SNB-19; Homo sapiens, CNS Cancer SNB-19): 18.2 µM
- growth percentage (SNB-19; SNB-19 (CNS Cancer), 10 μM, 48 hours): 94.02%
- TGI (SNB-75; CNS Cancer SNB-75): 2.35 µM
- GI50 (SNB-75; Homo sapiens, CNS Cancer SNB-75): 3.25 µM
- CC50 (SNB-75; Homo sapiens, CNS Cancer SNB-75, read-out: LC50 (the source's name)): 4.86 µM
- growth percentage (SNB-75; SNB-75 (CNS Cancer), 10 μM, 48 hours): 71.52%
- TGI (U251): 3.06 µM
- GI50 (U251; Homo sapiens, U-251): 11.4 µM
- LC50 (concentration killing 50% of cells) (U251; Homo sapiens, U-251): 5.88 µM
- GI50 (MALME-3M; [4]): 17.3 µM
- LC50 (concentration killing 50% of cells) (MALME-3M; [4]): 7.46 µM
- growth percentage (MALME-3M; MALME-3M (Melanoma), 10 μM, 48 hours): 52.55%
- TGI (MALME-3M; Melanoma MALME-3M): 3.83 µM
- GI50 (MDA-MB-435; Homo sapiens, Melanoma MDA-MB-435): 20.2 µM
- CC50 (MDA-MB-435; Homo sapiens, Melanoma MDA-MB-435, read-out: LC50 (the source's name)): 7.62 µM
- growth percentage (MDA-MB-435; MDA-MB-435 (Melanoma), 10 μM, 48 hours): 92.72%
- TGI (MDA-MB-435; Melanoma MDA-MB-435): 3.86 µM
- GI50 (SK-MEL-28): 6 µM
- CC50 (SK-MEL-28; read-out: LC50 (the source's name)): 5.83 µM
